Counter-ions that a name gives are not always drawn. Like-named read-outs stand apart in the source and are kept apart here.
What was measured:
[1] = test system: T. b. brucei; assay: Trypanosoma susceptibility assay (resazurin viability); type: cell-based; settings: for decrease of antitrypanosomal activity compared with 2: T. b. brucei, versus compound 2; for antitrypanosomal activity (in words): T. brucei in vitro; for potency lower compared to 31a: T. brucei, versus compound 31a
Protocol: (§1) The antiparasitic assays were carried out exactly as described in Blaazer et al.([39]) Metabolic stability, pharmacokinetics, acute mouse infection model results were collected as described previously.[21] All animal experiments were conducted in compliance with institutional guidelines and following approval by the Ethical Committee of the University of Antwerp, Belgium [UA-ECD 2014–96]. Female Swiss mice (15–20 g), were purchased from Janvier (Le Genest Saint Isle, France). […] Animals were treated PO b.i.d. for 5 days at 25 and 50 mg/kg 31c. For the SL-RNA qPCR experiments blood was collected sublingually and subjected to erythrocyte lysis before extracting RNA with the QIAamp RNA Blood Mini kit (Qiagen). […] Small pieces of fat, brain, and spleen tissue were excised and immediately transferred to RNA later (Qiagen) and incubated overnight at 4 °C. RNA extraction was performed as instructed in the RNeasy Mini Plus Kit manual (Qiagen). The one-step SensiFAST SYBR Hi-Rox PCR kit (Bioline USA Inc., via Gentaur Belgium BVBA, Kampenhout, Belgium) was used for the PCR with the following forward and reverse primers, respectively 5′-[…]-3′ and 5′-[…]-3′. An initial activation step of 10 min at 45 °C and 10 min at 95 °C was used, followed by the amplification step for 40 cycles (15 s at 95 °C, 15 s 50 °C and 15 s at 60 °C). At last, the melting curves were generated with an increment of 0.3 °C (15 s at 95 °C 1 min at 45 °C and 15 s at 95 °C). The PCR was run on the Step One Plus real-time PCR system (Applied Biosystems, California, USA). An additional qPCR was performed with the mouse housekeeping gene Eef2 to confirm successful RNA extraction.
In vitro experiments were carried out with the bloodstream form of the T. b. brucei Squib strain (suramin-sensitive). Parasites were routinely cultured in T25 culture flasks containing 10 mL of HMI-9 medium (Invitrogen) supplemented with 10% heat-inactivated fetal bovine serum (Life Technologies) and 2.5 μg/mL Geneticin (Life Technologies). MRC-5SV2 cells were cultured in MEM + Earl’s salts-medium, supplemented with 2 mM L-glutamine, 16.5 mM NaHCO3, and 5% inactivated fetal calf serum. All cultures and assays were conducted at 37 °C under an atmosphere of 5% CO2.
Parasites were counted in a KOVA counting chamber and diluted to 1.5 × 10^4 parasites/well of a 96-well plate (200 μL total volume), upon which the prediluted test compounds were added. Drug exposure covered a 72 h period without renewal of the culture medium. After 3 days of incubation, parasite growth was assessed fluorimetrically after addition of 50 μL of resazurin per well. After 6 h (T. b. rhodesiense) or 24 h (T. b. brucei) at 37 °C, fluorescence is measured (λex 550 nm, λem 590 nm). Parasite viability was assessed using the resazurin viability assay, and drug activity was calculated as percentage viability reduction compared to nontreated controls.

[2] = test system: MRC-5 cells; assay: MRC-5SV2 cytotoxicity assay; type: cell-based; settings: Homo sapiens, MRC5, 72 h, read-out: pIC50 MRC-5 (converted)
Protocol: The synthesized analogues were tested against T. b. brucei, and inhibition of MRC-5 (human lung fibroblasts MRC-5SV40) cell proliferation was included as cytotoxicity control. […] Analogue 17 with an amino group instead of the carbonyl group was prepared to improve solubility for further modification. […] In vitro experiments were carried out with the bloodstream form of the T. b. brucei Squib strain (suramin-sensitive). […] All cultures and assays were conducted at 37 °C under an atmosphere of 5% CO2. […] Cell growth is compared to untreated-control wells (100% cell growth) and medium-control wells (0% cell growth). […] After 4 h at 37 °C, fluorescence is measured (λex 550 nm, λem 590 nm). The results are expressed as % reduction in cell growth/viability compared to control wells and an IC50 and an IC90 (50 and 90% inhibitory concentrations) are determined.

[3] = test system: MRC-5 cells; settings: Figure 1; previously reported series ref 21; cited from earlier work
[4] = test system: T. b. brucei; settings: 10 mg/kg IP s.i.d. for 5 days, positive control, n = 3
Protocol: as §1
Mice were allocated to groups of three and were infected by IP injection of 10^4T. brucei Squib 427 trypomastigotes. […] Suramin was included as a reference for T. brucei and injected IP s.i.d. for 5 days at 10 mg/kg. A PEG400 vehicle control group was also included. […] The first treatment was given 30 min prior to the artificial infection. Drug efficacy was evaluated by microscopic determination of the parasitemia in a blood drop collected from the tail vein at several time points until 63 days postinfection (dpi). […] An SL-RNA qPCR assay was performed in all surviving animals to confirm parasitological cure. For the SL-RNA qPCR, peripheral blood was subjected to erythrocyte lysis before extracting RNA with the QIAamp RNA Blood Mini kit (Qiagen). […] Small pieces of fat, brain, and spleen tissues were excised and immediately transferred to RNA later (Qiagen) and incubated overnight at 4 °C. RNA extraction was performed as instructed in the RNeasy Mini Plus Kit manual (Qiagen). […]

[5] = Trypanosoma brucei, 72 h, T. b. brucei Squib bloodstream form, 72 h exposure, mean ± SD, n ≥ 2, read-out: pIC50 T. brucei (converted)
[6] = cytotoxicity, 3 days incubation, mean ± SD, n ≥ 2
[7] = T. b. brucei Squib bloodstream form, 72 h exposure, mean ± SD, n ≥ 2

Molecule | IC50 [1, 5] [nM] | IC50 [2, 6] [µM] | also measured
CC(C)c1nn(C(C)C)c2c(=O)[nH]c(-c3ccc(F)cc3)nc12 [21c, 5-(4-Fluorophenyl)-1,3-diisopropyl-1,6-dihydro-7H-pyrazolo[4,3-d]pyrimidin-7-one] | 6310 | > 63.1 | decrease of antitrypanosomal activity compared with 2 [1]: ~100 fold
CCCn1nc(C(C)C)c2nc(-c3ccc(F)cc3)[nH]c(=O)c21 [21b, 5-(4-Fluorophenyl)-3-isopropyl-1-propyl-1,6-dihydro-7H-pyrazolo[4,3-d]pyrimidin-7-one] | 158 | > 63.1 | 
5-(4-Fluorophenyl)-3-isopropyl-1-(4-methoxyphenethyl)-1,6-dihydro-7H-pyrazolo[4,3-d]pyrimidin-7-one [21e] |  |  | IC50 ([1]; read-out: IC50 against T. brucei): 3200 nM
COCCn1nc(C(C)C)c2nc(-c3ccc(F)cc3)[nH]c(=O)c21 [21d, 5-(4-Fluorophenyl)-3-isopropyl-1-(2-methoxyethyl)-1,6-dihydro-7H-pyrazolo[4,3-d]pyrimidin-7-one] | > 63100 | > 63.1 | antitrypanosomal activity (in words) [1]: no antitrypanosomal activity at all
CCn1nc(C(C)C)c2nc(-c3ccc(F)cc3)[nH]c(=O)c21 [21a, 1-Ethyl-5-(4-fluorophenyl)-3-isopropyl-1,6-dihydro-7H-pyrazolo[4,3-d]pyrimidin-7-one] | 251 | > 63.1 | 
CC(C)c1nn(CCC(N)=O)c2c(=O)[nH]c(-c3ccc(F)cc3)nc12 [21f, 3-(5-(4-Fluorophenyl)-3-isopropyl-7-oxo-6,7-dihydro-1H-pyrazolo[4,3-d]pyrimidin-1-yl)propanamide] | > 63100 | > 63.1 | antitrypanosomal activity (in words) [1]: no antitrypanosomal activity
O=c1[nH]c(-c2ccc(F)cc2)nc2cn[nH]c12 [31f, 5-(4-Fluorophenyl)-1,6-dihydro-7H-pyrazolo[4,3-d]pyrimidin-7-one Formate] |  |  | IC50 ([1]; Trypanosoma brucei, 72 h, read-out: pIC50 T. brucei (converted)): > 63100 nM; IC50 [2]: > 63.1 µM
CC(C)c1nn(CCO)c2c(=O)[nH]c(-c3ccc(F)cc3)nc12 [compound 22, 5-(4-Fluorophenyl)-1-(2-hydroxyethyl)-3-isopropyl-1,6-dihydro-7H-pyrazolo[4,3-d]pyrimidin-7-one] | 631 | > 63.1 | IC50 ([1]; Trypanosoma brucei, read-out: IC50 against T. brucei): 800 nM
CC(C)c1[nH]nc2c(=O)n(C)c(-c3ccc(F)cc3)nc12 [compound 7, 5-(4-Fluorophenyl)-3-isopropyl-6-methyl-2,6-dihydro-7H-pyrazolo[4,3-d]pyrimidin-7-one] | > 10000 | > 63.1 | decrease of antitrypanosomal activity compared with 2 [1]: > 100 fold
Cc1n[nH]c2c(=O)[nH]c(-c3ccc(F)cc3)nc12 [31e, 5-(4-Fluorophenyl)-3-methyl-1,6-dihydro-7H-pyrazolo[4,3-d]pyrimidin-7-one] | 25100 | > 63.1 | 
CC(C)c1n[nH]c2c(=O)[nH]c(Cc3ccccc3)nc12 [compound 1, reference compound] |  |  | MRC-5 pIC50 [3]: < 4.2
CC(C)c1n[nH]c2c(=N)[nH]c(-c3ccc(F)cc3)nc12 [compound 17, 5-(4-Fluorophenyl)-3-isopropyl-1,6-dihydro-7H-pyrazolo[4,3-d]pyrimidin-7-imine] | > 10000 | 25.1 | decrease of antitrypanosomal activity compared with 2 [1]: > 100 fold
O=c1[nH]c(-c2ccc(F)cc2)nc2c(-c3ccccc3)n[nH]c12 [compound 35, 5-(4-Fluorophenyl)-3-phenyl-1,6-dihydro-7H-pyrazolo[4,3-d]pyrimidin-7-one] | < 100 | > 63.1 | pIC50 T. brucei [1, 7]: 7.3 ± 0.1; potency lower compared to 31a [1]: 4 fold
CCc1n[nH]c2c(=O)[nH]c(-c3ccc(F)cc3)nc12 [31d, 3-Ethyl-5-(4-fluorophenyl)-1,6-dihydro-7H-pyrazolo[4,3-d]pyrimidin-7-one] | 398 | > 63.1 | 
CC(C)c1c2nc(-c3ccc(F)cc3)[nH]c(=O)c2nn1C [compound 15, 5-(4-Fluorophenyl)-3-isopropyl-2-methyl-2,6-dihydro-7H-pyrazolo[4,3-d]pyrimidin-7-one] | 1580 | > 63.1 | decrease of antitrypanosomal activity compared with 2 [1]: 20 fold
CC(C)c1nn(C)c2c(=O)[nH]c(-c3ccc(F)cc3)nc12 [compound 11, 5-(4-Fluorophenyl)-3-isopropyl-1-methyl-1,6-dihydro-7H-pyrazolo[4,3-d]pyrimidin-7-one] | < 100 | > 63.1 | pIC50 T. brucei [1, 7]: 7.1 ± 0.1
Cc1ccc(C(=O)Nc2ccc(S(=O)(=O)O)c3cc(S(=O)(=O)O)cc(S(=O)(=O)O)c23)cc1NC(=O)c1cccc(NC(=O)Nc2cccc(C(=O)Nc3cc(C(=O)Nc4ccc(S(=O)(=O)O)c5cc(S(=O)(=O)O)cc(S(=O)(=O)O)c45)ccc3C)c2)c1 [suramin, reference compound] |  |  | survival [4]: survived throughout the 60 days postinfection follow-up period without relapse
O=c1[nH]c(-c2ccc(F)cc2)nc2c(C3CCCCC3)n[nH]c12 [31b, 3-Cyclohexyl-5-(4-fluorophenyl)-1,6-dihydro-7H-pyrazolo[4,3-d]pyrimidin-7-one] |  | > 63.1 | potency lower compared to 31a [1]: 4 fold

Reference: PMC10895668, “Lead Optimization of the 5-Phenylpyrazolopyrimidinone NPD-2975 toward Compounds with Improved Antitrypanosomal Efficacy” (Journal of Medicinal Chemistry, 2024)
